The source of these data is patent publication US7557133B2, “Caspase inhibitors containing isoxazoline ring” (LG Life Sciences Ltd., priority 2003, dated 2009).

The test system of data set [1] is Jurkat cell (ATCC TIB-152). Nature of the data set: Jurkat cell apoptosis by Fas antibody, WST-1 method. The data set is classed as cell-based. The note with it: for IC50: apoptosis using Fas antibody, WST-1. The gist of the method:
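Jurkat cells (ATCC TIB-152) induced to apoptosis with Fas antibody in the presence of inhibitor. Viable cells quantified by WST-1 colour change, absorbance at 440 nm.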
In general terms: Formazan colour is commonly taken as a measure of viable cells.

The subject of data set [2] is LPS-induced acute hepatitis. Nature of the data set: Therapeutic effect for LPS-induced acute hepatitis in mouse (plasma ALT). The data set is classed as in vivo. The procedure:
Female Balb/c mice (6 weeks, Charles River Laboratory, Osaka, Japan) were kept under the conditions of 22 °C, 55% of relative humidity, and light-darkness cycle of 12 hours. Food and water were supplied ad libitum. In pyrogen-free saline were dissolved LPS (lipopolysaccaride) and D-galactosamine in concentrations of 0.4 mg/ml and 280 mg/ml, respectively, and their 1:1 mixture was injected to mice in the amount of 5 ml/kg. Immediately after the injection of LPS and D-galactosamine, vehicle (a mixture of PEG400:ethanol:Tween80=15:7.5:2.5 was diluted by five times with saline) wherein the test compound is dissolved or the vehicle alone was intraperitoneally injected into the mice. After 8 hours from the drug injection, blood samples were obtained from their hearts.
The plasma ALT activity was determined for the blood samples obtained in Step 1 using ALT assay kit (Asan Pharm. Co., Seoul, Korea) according to the manufacturer's instruction.

The test system of the next data set is hepatic cell apoptosis. Briefly: Inhibitory effect against apoptosis during the bile stagnation in SD rats (TUNEL staining). The data set is classed as in vivo, rat. Particulars: for TUNEL positive cells/field: BDL rats. How it is done: Male Spargue-Dawley rats (6 weeks, Korea Biolink) were kept under the conditions of 22 °C, 55% of relative humidity, and light-darkness cycle of 12 hours. Food and water were supplied ad libitum. For the ligation of biliary duct, the rats were anesthetized by inhalation of 1% halothane, abdomen of the rats were cut open, the distal and proximal biliary ducts were ligated, the part between the ligation sites were cut, 2 ml of saline was injected, and sutured.
Test compound (Iii) was orally administered in a dosage of 3 mg/kg or 10 mg/kg twice a day. That is, the compound was dissolved in a cosolvent (PEG400:ethanol:Tween80=15:7.5:2.5), diluted with phosphate buffer (pH 7.4) by five times, and administered. To the control group was administered the solution without the test compound. The administration was made for 1 week after 1 week from the ligation of biliary duct.
The test compound (Iii) was administered to the SD rats whose biliary ducts were ligated according to the procedure as Step 1 of Experiment 3. After 2 weeks from the operation, the rats were sacrificed. The livers were fixed by 10% neutral formalin and a paraffin section of 5 μm thickness was prepared. TUNEL staining was carried out using ApopTag Peroxidase In Situ Apoptosis Detection kit (Chemicon) according to the manufacturer's instruction. More than 10 sites of the TUNEL stained liver tissue were photographed in 200 magnifications without any overlap, of which result was shown in FIG. 2. The number of cells suffering apoptosis in each test group was counted and represented in the following Table 2. In the following table, the Sham operation means the case where the biliary duct was exposed but not ligated, and the BDL operation means the case where only the vehicle was administered after the ligation of biliary duct.

In another data set the test system is foot edema. Nature of the data set: Antiphlogistic effect in rats (carrageenan foot edema). The note with it: 3 hours after carrageenan. The data set is classed as in vivo, rat. The procedure: Male SD rats (6 weeks, Orient) were kept under the conditions of 22 °C, 55% of relative humidity, and light-darkness cycle of 12 hours. Food and water were supplied ad libitum. Before the induction of edema, the foot volume of each rat was measured by plethysmometer. Before the induction of edema, vehicle (a mixture of PEG400: ethanol:Tween80=15:7.5:2.5 was diluted by ten times with phosphate buffer) wherein the test compound is dissolved or the vehicle alone was orally administered into the rats. Carrageenan (gamma) was dissolved in the concentration of 1% in saline, and subcutaneously injected into the right rear foot of the rats in the dosage of 100 μl. After 3 hours, the right foot volume was measured again by plethysmometer. The effect of the test compound was shown by edema inhibition (%) (see Table 3). The edema inhibition (%) was calculated according to the following Equation 2. Edema Inhibition (%)=100×(Average of the increased foot volume in the vehicle-administered group−Increased foot volume in the test compound-administered group)/Average of the increased foot volume in the vehicle-administered group Equation 2
(In general: In the carrageenan paw model, swelling and tenderness develop within hours.)

Another data set relates to rheumatic arthritis. Briefly: Therapeutic effect for rheumatic arthritis in rats (type II collagen). The data set is classed as in vivo, rat. How it is done: Female Lewis rats (7 weeks, Charles River, Japan) were kept under the conditions of 22 °C, 55% of relative humidity, and light-darkness cycle of 12 hours. Food and water were supplied ad libitum. Type II collagen (bovine) was dissolved in 0.05M acetic acid in a concentration of 2 mg/ml at 4[…], and the same amount of Complete Freund's adjuvant was added to emulsify the solution at 4[…]. 0.1 ml of thus emulsified solution was subcutaneously injected into the rattail of the Lewis rats. After 7 days, the emulsified solution was injected again in the same manner. From the date on which the second emulsified solution was injected, vehicle (a mixture of PEG400:ethanol:Tween80=15:7.5:2.5 was diluted by ten times with phosphate buffer) wherein the test compound is dissolved or the vehicle alone was orally administered into the rats every day. On Day 14 from the first injection of the collagen-containing emulsified solution, the right rear foot volume was measured again by plethysmometer (see Table 4). The edema inhibition (%) was determined by the following Equation 3. […]
Further, p-value was calculated by Student t-test from the increased foot volume on Day 14 to confirm the significance.

The nature of data set [3]: Solubility (pH = 7.44 phosphate). Type of data set: physicochemical.

Marks after values point to notes of the source that are not given here.

The IC50 is the point on the concentration scale where inhibition reaches its midpoint. Higher therefore signals weaker potency. By ED50 is commonly meant the midpoint of the dose-response relation. For the molecule `CC(C)[C@@]1(C(=O)NC(CC(=O)O)C(=O)CF)CC(c2nccc3ccccc23)=NO1` (stereo partly drawn) [Iii, 5-Fluoro-3-({[(5R)-5-isopropyl-3-(1-isoquinolinyl)-4,5-dihydro-5-isoxazolyl]carbonyl}amino)-4-oxopentanoic acid], in data set [1], the “increased inhibitory activity against Jurkat cell compared with LB84068MP” value was at least 10 times. Besides, the IC50 in data set [1] (Homo sapiens, Jurkat) is 0.1 µM; in data set [1] it was at most 0.1 µM. In addition, in data set [2] (in vivo), the “increased activity against LPS-induced acute hepatitis model (mouse) compared with LB84068MP” value is recorded as “about 100 times”. Further, the 50% effective dose (ED50) in data set [2] (ip, LPS and D-galactosamine, intraperitoneally injected, plasma ALT after 8 hours, read-out: ED50 (LPS + Gal)) was determined as 0.01 mg/kg. Also, the TUNEL positive cells/field with hepatic cell apoptosis (3 mg/kg orally twice a day for 1 week) was 4.12 ± 1.3 TUNEL positive cells/field; with hepatic cell apoptosis (10 mg/kg orally twice a day for 1 week) it was 5.66 ± 1.34 TUNEL positive cells/field. The “inhibition of apoptosis (TUNEL staining)” value in the data set on hepatic cell apoptosis (bile stagnation model, rats) is 75%. Also, the “Edema inhibition effect (%) Average” value in the data set on foot edema (30 mg/kg oral) is recorded as 20.7%; in the data set on foot edema (100 mg/kg oral), 22.7%. The “Foot volume (ml) Day 14 Average” value in the data set with rheumatic arthritis (10 mg/kg oral every day, Day 14) is on record as 1.394* ml. In addition, the “Foot volume (ml) Day 0 Average” value with rheumatic arthritis (10 mg/kg oral group, Day 0) turned out to be 1.134 mL. For the same molecule, the “solubility compared with LB84068MP” value in data set [3] is “improved solubility”.
